Results from patent publication EP2662079A1 (Ordway Research Institute, Inc., priority 2012, dated 2013).
Several values for one entry are separate records, joined by “and”; a condition that tells them apart may be missing. Equal entries are not always repeated.

Legend:
[1] = system: chick chorioallantoic membrane (CAM); test: Chorioallantoic membrane (CAM) model of angiogenesis; assay type: in vivo
Method: In vivo neovascularization was examined by methods described previously. 9-12 Ten-day-old chick embryos were purchased from SPAFAS (Preston, CT) and incubated at 37°C with 55% relative humidity. A hypodermic needle was used to make a small hole in the shell concealing the air sac, and a second hole was made on the broad side of the egg, directly over an avascular portion of the embryonic membrane that was identified by candling. A false air sac was created beneath the second hole by the application of negative pressure at the first hole, causing the CAM to separate from the shell. A window approximately 1.0 cm^2 was cut in the shell over the dropped CAM with a small-crafts grinding wheel (Dremel, division of Emerson Electric Co.), allowing direct access to the underlying CAM. FGF2 (1µg/mL) was used as a standard proangiogenic agent to induce new blood vessel branches on the CAM of 10-day-old embryos. Sterile disks of No. 1 filter paper (Whatman International) were pretreated with 3 mg/mL cortisone acetate and 1 mmol/L PTU and air dried under sterile conditions. Thyroid hormone, hormone analogs, FGF2 or control solvents, and inhibitors were then applied to the disks and the disks allowed to dry. The disks were then suspended in PBS and placed on growing CAMs. […] At 24 hours, the MAPK cascade inhibitor PD 98059 was also added to CAMs topically by means of the filter disks.
After incubation at 37°C with 55% relative humidity for 3 days, the CAM tissue directly beneath each filter disk was resected from control and treated CAM samples. Tissues were washed 3X with PBS, placed in 35-mm Petri dishes (Nalge Nunc), and examined under an SV6 stereomicroscope (Zeiss) at X50 magnification. Digital images of CAM sections exposed to filters were collected using a 3-charge-coupled device color video camera system (Toshiba) and analyzed with Image-Pro software (Media Cybernetics). The number of vessel branch points contained in a circular region equal to the area of each filter disk were counted. One image was counted in each CAM preparation, and findings from 8 to 10 CAM preparations were analyzed for each treatment condition (thyroid hormone or analogs, FGF2, FGF2 antibody, PD 98059). In addition, each experiment was performed 3 times. The resulting angiogenesis index is the mean ± SEM of new branch points.

[2] = system: GL261 murine brain tumor cells; test: GL261 growth curve, cell size and colony forming efficiency; assay type: cell-based
Method: 1 x 10^5 cells per 25 cm^2 flask at time zero (density 40 cells/mm^2). Three flasks were utilized at each time period. The medium in the flasks was not changed over the duration of the growth curve (unfed cultures). Data were taken daily from day zero to day 11.5 post-seeding and cell numbers, age distributions, and apoptotic percentages were determined. After growth curve shapes (without and with 2 µM Tetrac) were determined, irradiation times at 70 and 270 hour post-seeding were chosen.
To obtain exponential and plateau phase cell numbers, we trypsinized ([…] trypsin-EDTA) cells for 5 min at 37°C.
For determination of CCDTs, the cell numbers per flask were determined on a daily basis. A four-day interval in the exponential region of growth to obtain the CCDTs, yielding a total of 12 estimations for analysis was utilized. A regression analysis was performed using the (log) of the cell number versus the linear time in days (SigmaPlot, V. 10, Systat Software, Inc., Point Richmond, CA). The log slope value and its standard error (SE) were determined, and the SE was converted to the 95% confidence limits using a two-tailed t-table at N-1 degrees of freedom where N is the number of samples. (See Goldstein, A. In: Biostatistics, New York, The MacMillan Co., 1964, p. 140-146).

GL261 tumor cells = test: 44°C hyperthermia survival; assay type: cell-based, murine
Method: Additionally, Tetrac sensitizes GL261 cells in hyperthermic conditions. Graded heat treatment of GL261 tumor cells with 44°C was given, without and with Tetrac. Tetrac increased cell killing as compared to control cells alone, by the equivalent of about 1°C (i.e., 44°C plus Tetrac is the equivalent of 45°C without Tetrac). (See Figure 63).

U87MG cells = test: Colony forming efficiency and flow cytometry; assay type: cell-based, human; conditions: Tetrac for 1 h at 37°C
Method: U87MG cells were seeded at 10^6 cells/100 mm^2 dish and incubated at 37°C for 24 h. Adherent cells were trypsinized and washed once in ambient temperature PBS. Cells were then fixed in 70% ethanol, and stored overnight at 4°C. Cells were prepared for cell cycle analysis by first pelleting the cells (1000 rpm, 7 min, 4°C), and then resuspending the pellet in 1 mL of PBS containing 0.2 mg/mL propidium iodide (Boehringer Mannheim, Indianapolis, IN), with incubation in the dark for 30 min. Cells were then left overnight at 4°C in the dark. Cells were analyzed on a Coulter fluorescence-activated cell sorter (Coulter Electronics, Hialeah, FL). Cells were excited with a single 488 nm argon laser, and the resulting fluorescence was detected using a 585 nm filter. Linear red-orange FL3 data were collected (10,000 events per collection). The distribution of cells within the cell cycle was determined using a Coulter software program.

## O=C(O)Cc1cc(I)c(Oc2cc(I)c(O)c(I)c2)c(I)c1 [Tetrac, 3,3',5,5'-tetraiodothyroacetic acid]
[1]; CAM model (Figure 3C)
  effect of Tetrac alone on angiogenesis: no effect
[1]; CAM model, FGF (1.25 µg/ml) + compound at 10 µg/plug, n=8
  Mean Branch points: 81± 8
[1]; Tetrac 0.1 µmol/L
  effect on the action of T4 in the CAM model: inhibited
[2]
  saturation density of control cells relative to Tetrac-treated cells: approximately 2.4 times
[2]; Tetrac-treated GL261 cells, 2 µM, exponential growth
  cell doubling time: 43.8 ± 3.8 h and 43.8 h
GL261 tumor cells; 44°C plus Tetrac
  increase in cell killing as temperature equivalent: about 1 °C
GL261 tumor cells; Tetrac 2uM, 20 minutes at 44°C
  sensitization factor: 3.8
U87MG cells; flow cytometry
  G1: 58.2 (± 12.2) %
  G2/M: 24.8 (± 2.8) %
  S: 15.4 (± 9.1) %
  sub-G1 population: 1.5 (± 0.2) %
U87MG cells; mean and 95% confidence limits
  colony forming efficiency: 26.0 (± 6.1) %
